According to US20110052688A1, “SOLID DISPERSION COMPOSITION” (priority 2006, published 2011):

Experiment: Solubility of fluvastatin sodium in solvents
Type: physicochemical
Settings: in water, alcohols and acetone
Excerpt: In one aspect, the solvent-based process uses a solvent, such as water, non-organic solvents, and organic solvents, to dissolve and intimately disperse or dissolve the drug and the one or more pharmaceutical acceptable polymers. The solvent is later removed by evaporation or other ways while the drug/polymer solid dispersion is collected into a solid dosage form. The use of organic solvents may generate hazardous and toxic wastes to the environment. If possible, water is used for water soluble drugs to prepare a dispersion. Other suitable solvents may be, for example, alcohols and acetone for the use of water-insoluble polymers.

CC(C)n1c(/C=C/C(O)CC(O)CC(=O)O)c(-c2ccc(F)cc2)c2ccccc21 (stereo not drawn) [fluvastatin sodium, [R*,S*-(E)]=(±)-7-[3-(4-fluorophenyl)-1-(1-methylethyl)-1Hindol-2-yl]-3,5-dihydroxy-6-heptenoic acid]
Solubility: soluble
